Laboratory results taken from patent publication US8815900B2, “Compounds and compositions for reducing lipid levels” (CVI Pharmaceuticals Limited, priority 2007, dated 2014).

Key:
[1] = tested on: LDLR mRNA expression in HepG2 cells; experiment: LDLR mRNA expression in HepG2 cells, quantitative real-time RT-PCR; format: cell-based, Human; conditions: 24 hours, indicated concentrations (FIG. 19A)
Method: In yet another experiment, HepG2 cells were treated with various compounds for 24 hours at the indicated doses. Total RNA was isolated and 2 μg was used to generate cDNA in a reaction containing random primers and M-MLV at 37° C. for 1 hour in a volume of […] Real-time PCR was performed on the cDNA using MCEP REALPLEX 2 SYSTEM (Eppendorf) and Universal MasterMix (Applied Biosystems). Human LDLR and GAPDH Pre-Developed TaqMan Assay Reagents (Applied Biosystems) were used to assess the levels of mRNA expressions in HepG2. The levels of LDLR mRNA were normalized to that of GAPDH. Each RNA samples was assayed in triplicate. The abundance of LDLR mRNA in untreated cells was defined as 1, and the amounts of LDLR mRNA from compound-treated cells were plotted relative to that value in FIG. 13. The data shown are mean±s.d.
Activities of some compounds of Formulas I, II, III, and IV on LDLR mRNA expression were determined. HepG2 cells were treated with new compounds individually at a dose less than or equal to 10 μM for 24 hours. Total RNA was harvested for quantitative real-time RT-PCR analysis using the method described in Example 16B. […] In these experiments, berberine chloride was included for comparison.
Quantitative real-time RT-PCR was conducted, and triplicate was assayed in each RNA sample. The data are mean value of triplicates.
Total RNA was harvested for quantitative real-time RT-PCR analysis using method described in Examples 16B.

[2] = tested on: PCSK9 mRNA expression in HepG2 cells; experiment: PCSK9 mRNA expression in HepG2 cells, quantitative real-time RT-PCR; format: cell-based, Human; conditions: 24 hours, indicated concentrations (FIG. 19B)
Method: The effects of compounds of Formula I, II, III, and IV on the inhibition of PCSK9 mRNA expression was examined (Horton J D, Cohen J C, Hobbs H H. “Molecular biology of PCSK9: its role in LDL metabolism” TRENDS in Biochemical Sciences 2007; 32:71-77; Cameron J, Ranheim T, Kulseth M A, Leren T P, Berge K E. “Berberine decreases PCSK9 expression in HepG2 cells” Atherosclerosis, 2008 online publication). HepG2 cells were treated with new compounds individually at 10 uM dose for 24 hours. Total RNA was harvested for quantitative real-time RT-PCR analysis using method described in Example 16B. The fold activity was derived by dividing the amount of normalized PCSK9 mRNA in compound-treated cells over the amount of PCSK9 mRNA in untreated control cells. In these experiments, berberine chloride (10 uM) was included for comparison (see FIG. 18).
Total RNA was harvested for quantitative real-time RT-PCR analysis using method described in Examples 16B. The fold activity was derived by dividing the amount of normalized LDLR or PCSK9 mRNA in compound-treated cells over the amount of LDLR or PCSK9 mRNA in untreated control cells.

Which “LDLR mRNA expression” value [1] does the source give for `COc1cc2c(cc1OC)C1Cc3ccc(OC)c(OS(=O)(=O)c4ccccc4)c3CN1CC2` (centres unmarked) [Compound 91, 2,3,10-trimethoxy-5,6,7,8,13,13a-hexahydroiso-quinolino[2,1-b]isoquinolin-9-yl benzenesulfonate] here?
Its value is “dose-dependently increases”.

What about the “PCSK9 mRNA expression” value [2] of the same compound?
Its value is “inhibits”.
